Data on 3 compounds can be found in paper PMC7918738, “Microtubule Destabilizing Sulfonamides as an Alternative to Taxane-Based Chemotherapy” (International Journal of Molecular Sciences, 2021).

In general, IC50 refers to the concentration that gives 50% inhibition. A low value points to higher potency.

One assay concerns HeLa cells. The assay can be described thus: Cell cycle analysis in HeLa (PI staining, flow cytometry). In kind it is cell-based, human. The note with it: 24 h; 38 600 nM, 42 50 nM, 45 400 nM. The procedure: (§1) The effect of the lead MDS on the cell cycle of MCF7, SKOV3, and HeLa cells was analyzed in time-course experiments at 24, 48, and 72 h post-treatment by DNA staining and flow cytometry quantification. The working concentration for each compound (600 nM for 38, 50 nM for 42, and 400 nM for 45) was established at the complete inhibition of cell proliferation in view of individually assays run in parallel for each cell line.
(§2) Cell cycle analysis was performed in MCF7, SKOV-3, and HeLa cells by quantifying the DNA content by flow cytometry. Cells in the exponential growth phase at 2·10^4 cells/mL were seeded in 24-well plates (1 mL/well). After 24 h incubation, cells were treated with different concentrations of the selected compounds and the effect of treated and untreated cells was measured 24, 48, and 72 h post-treatment. Live and dead cells were collected and fixed in ice-cold ethanol/PBS (7:3) and stored at 4 °C for later use. Cells were rehydrated with PBS, treated with 100 µg/mL RNase A (Sigma-Aldrich Co., St. Louis, MO, USA) and stained overnight in darkness at room temperature with 50 µg/mL PI (Sigma-Aldrich Co.). Cell cycle profiles were then analyzed by flow cytometry using BD Accuri™ C6 Plus Flow Cytometer (BD Biosciences, San José, CA, USA). Data were analyzed with BD Accuri™ C6 Software (version 1.0.264.21, BD Biosciences, San José, CA, USA) and compared to control cells. Compounds were dissolved in DMSO and the final solvent concentration never exceeded 0.5% (v/v). Control wells included cells with 0.5% (v/v) DMSO.
Background: In flow cytometry, cells or beads pass a laser one at a time.

The next assay has as its system SKOV3 cells. The assay can be described thus: Cell cycle analysis in SKOV3 (PI staining, flow cytometry). In kind it is cell-based, human. The following applies: 38 600 nM, 42 50 nM, 45 400 nM; for SKOV3 cells at G2/M phase: 24 h. The procedure:
as §1, §2

The test system of assay [1] is OVCAR-8 ovarian carcinoma cells. Put plainly: Antiproliferative activity against OVCAR-8 (MTT). In kind it is cell-based. The note with it: Homo sapiens, 72 h. The procedure: The in vitro antiproliferative activity of compounds 38, 42, and 45 against a panel of five human ovarian carcinoma cell lines (SKOV3, IGROV-1, A2780, OVCAR-8, and OVCAR-3) was evaluated by a colorimetric method (Table 3) and compared with paclitaxel. […] For SKOV3, the potency reduction observed for paclitaxel together with a sustained or improved (42 with a 7 nM IC50 value) potency for MDS results in a more favorable profile of the MDS compared to paclitaxel.
MCF7 (human breast carcinoma), SKOV-3 (human ovarian carcinoma), OVCAR-3 (human ovarian carcinoma), OVCAR-8 (human ovarian carcinoma), and HeLa (human cervical carcinoma) cell lines were cultured in Dulbecco’s Modified Eagle’s Medium (DMEM) (Gibco, Thermo Fischer Scientific) containing 10% (v/v) heat-inactivated fetal bovine serum (HIFBS) (Lonza-Cambrex, Karlskoga, Sweden), 2 mM L-glutamine (Lonza-Cambrex, Karlskoga, Sweden), 100 μg/mL streptomycin, and 100 IU/mL penicillin (Lonza-Cambrex) at 37 °C in humidified 95% air and 5% CO2. […]
MCF7, HeLa, and HT-29 cell proliferation, when treated with the corresponding compounds, were determined using the XTT (sodium 3’-[1(phenylaminocarbonyl)-3,4-tetrazolium]-bis(4-methoxy-6-nitro)-benzenesulfonic acid hydrate) cell proliferation kit (Roche Molecular Biochemicals, Mannheim, Germany). […] The absorbance of the formazan product generated was measured at 450 nm using a multi-well plate reader. SKOV-3, OVCAR-3, OVCAR-8, IGROV-1, A-2780 cell proliferation, when treated with the corresponding compound, were determined using MTT (3-(4,5-dimethylthiazol-2-yl)-2,5-diphenyl-2H-tetrazolium bromide) (Sigma-Aldrich, St. Louis, MO, USA). […] Absorbance was measured at 570 nm in a plate reader (Ultra Evolution, Tecan, Männedorf, Suiza). […] After 24 h incubation, to allow cells to attach to the plates, all compounds were added at 1 µM concentration and the effect on the proliferation was evaluated 72 h post-treatment. […]

`COc1ccc(S(=O)(=O)N(C)c2cc(OC)c(OC)c(OC)c2)cc1N` [Compound 42]: the “HeLa cells at G2/M phase” value with HeLa cells was determined as 44%. Also, the “SKOV3 cells at G2/M phase” value in the assay with SKOV3 cells is 44%. For the same compound, the “SKOV3 cells at SubG0/G1” value in the assay with SKOV3 cells (48 h) amounted to 34%; with SKOV3 cells (72 h), 53%. The same compound registered an IC50 in assay [1] of 37 nM.

As to `CNc1ccc(S(=O)(=O)N(C)c2cc(OC)c(OC)c(OC)c2)cc1` [Compound 38], the “HeLa cells at G2/M phase” value in the assay on HeLa cells is reported as 80%. Besides, the “SKOV3 cells at G2/M phase” value in the assay with SKOV3 cells amounted to 44%. The “SKOV3 cells at SubG0/G1” value in the assay on SKOV3 cells (48 h) worked out at 35%; with SKOV3 cells (72 h), 43%. Further, the midpoint of inhibition in assay [1], the IC50, lay at 74 nM.

With `COc1ccc(S(=O)(=O)N(Cc2ccccc2)c2cc(OC)c(OC)c(OC)c2)cc1N` [Compound 45], the “HeLa cells at G2/M phase” value in the assay with HeLa cells is 80%. Also, in the assay with SKOV3 cells, the “SKOV3 cells at G2/M phase” value is recorded as 44%. Further, the results for the “SKOV3 cells at SubG0/G1” value with SKOV3 cells (48 h) and in the assay with SKOV3 cells (72 h) were 46% and 63%, respectively. The same compound showed a half-maximal inhibitory concentration (IC50) in assay [1] of 48 nM.
